Test results: US9988407B2, “Prodrugs of prostate specific membrane antigen (PSMA) inhibitor” (THE JOHNS HOPKINS UNIVERSITY, priority 2014, dated 2018)
“Also recorded” adds a separate entry of the source.

Columns and labels:
[1] = In vivo pharmacokinetics in mice, peroral, bioanalysis method 1 (total prodrug exposure); details: mice, oral dosing
Protocol: Blood was obtained via cardiac puncture and tissue dissected at 0 min, 15 min, 30 min, 1 h, 2 h, and 4 h post dose (n=3 per time point). Single time point studies were conducted at 30 min (N=3) following dosing. Plasma was harvested from blood by centrifugation. Mean concentration-time data was used for pharmacokinetic (PK) analysis. Non-compartmental-analysis module in WinNonlin® (version 5.3) was used to assess pharmacokinetic parameters. Peak plasma concentrations (Cmax) and time to Cmax (Tmax) were the observed values. Area under the curve (AUC) was calculated by log-linear (p.o.) trapezoidal rule to the end of sample collection (AUClast) and extrapolated to infinity (AUC0-∞) by dividing the last quantifiable concentration by the terminal disposition rate constant (ke). Terminal half-life (t1/2) was estimated from first order kinetics: t1/2=0.693/ke.
Briefly, prior to extraction, frozen samples were thawed on ice. For plasma extraction, 50 μL of the calibration standards or samples were transferred into silanized microcentrifuge tubes. Sample preparation involved a single liquid extraction by addition of 300 μL of methanol as extraction solution with internal standard (i.e., 5 μM of 2-PMSA in methanol), followed by vortexing for 30 s and then centrifugation at 12000 g for 10 min. Supernatant was transferred (˜250 μL) and evaporated to dryness at 40° C. under a gentle stream of nitrogen. The residue was reconstituted with 100 μL of derivatizing agent, n-butanol with 3N HCl, and samples were vortexed. The samples were heated at ˜60 OC in a shaking water bath for 30 min. At the end of 30 min, the derivatized samples were allowed to cool at room temperature and dried again for removal of derivatizing reagent, under a gentle stream of nitrogen. The residue was reconstituted in 100 μL of 30% acetonitrile in water v/v. The samples were vortexed and centrifuged again. ˜80 μL supernatant was transferred to a 250 μL polypropylene vial sealed with a Teflon cap and a volume of 10 μL was injected onto the ultra-performance liquid chromatography (UPLC) instrument for quantitative analysis. Chromatographic analysis was performed using an Accela™ ultra high-performance system consisting of an analytical pump, and an autosampler coupled with TSQ Vantage mass spectrometer (Thermo Fisher Scientific Inc., Waltham Mass.). […] The mobile phase used was composed of 0.1% formic acid in acetonitrile and 0.1% formic acid in H2O with gradient elution, starting with 20% (organic) linearly increasing to 65% up to 2.5 min, maintaining at 65% (2.5-3.5 min) and reequilibrating to 30% by 5 min. The total run time for each analyte was 5.0 min.

[2] = Chemical stability in HBSS buffer (pH 7.4) / simulated gastric fluid; format: physicochemical; details: for chemical stability: chemical hydrolysis / HBSS buffer; for Percentage remaining: HBSS, 10 μM, 37° C.
Protocol: The chemical stability of prodrugs was evaluated using simulated gastric fluid (pH 1.2) and Hanks' Balanced Salt Solution (HBSS) buffer (pH 7.4). Briefly, prodrugs were spiked (10 μM) in respective solutions and incubated at 37° C. for 1 h. At predetermined time points (0, 30 and 60 min), aliquots of 100 μL were removed and diluted with 100 μL of water. Prodrug disappearance was monitored using the developed liquid chromatography and tandem mass spectrometry (LC/MS/MS) method described below.
(§1) For LC/MS/MS, prodrugs were separated with Thermo Scientific Accela UPLC system coupled to Accela open autosampler on an Agilent C18 (100×2.1 mm id) UPLC column. The autosampler was temperature controlled and operating at 10° C. The mobile phase used for the chromatographic separation was composed of acetonitrile/water containing 0.1% formic acid and was run at a flow rate of 0.5 mL/minute for 4.5 minutes using gradient elution. The column effluent was monitored using TSQ Vantage triple-quadrupole mass spectrometric detector, equipped with an electrospray probe set in the positive ionization mode. Samples were introduced into the ionization source through a heated nebulized probe (350° C.).
(§2) For quantification of compound remaining, disappearance of prodrugs was measured from ratio of peak areas of analyte to IS. Percentage remaining was calculated in the following manner: […]

[3] = In vitro metabolic stability screen in plasma and liver subcellular fractions (results in words); format: in vitro ADME; details: 60 min incubation
Protocol: (§3) For metabolic stability, plasma (mouse, dog, monkey and human) and liver microsomes (mouse, dog, monkey and human) were used. For stability, prodrugs (10 μM) were spiked in each matrix and incubated in an orbital shaker at 37° C. At predetermined times (0, 30 and 60 min), 100 μL aliquots of the mixture in triplicate were removed and the reaction quenched by addition of three times the volume of ice cold acetonitrile spiked with the internal standard (losartan 5 μM). The samples were vortexed for 30 s and centrifuged 12000 g for 10 min. 50 μL supernatant diluted with 50 μL water was transferred to a 250 μL polypropylene vial sealed with a Teflon cap. Prodrug disappearance was monitored over time using a liquid chromatography and tandem mass spectrometry (LC/MS/MS) method as described below.
as §1
For quantification of compound remaining, disappearance of prodrugs was measured from ratio of peak areas of analyte to IS. Percentage remaining was calculated in the following manner:
In general, the prodrugs were screened by an in vitro metabolic stability screen, and if positive, followed by an in vivo single time point pharmacokinetic study, and in select cases, an in vivo full time course pharmacokinetic study (FIG. 3). In this Example, the four acidic functional groups in 2-PMPA were systematically capped. The carboxylic acids were first masked with simple alkyl esters (Compounds 1, 2, and 3). In vitro chemical and metabolic stability of the prodrugs then were conducted, following 60 min incubation in plasma stability screens for prodrugs.

[4] = Metabolic stability in mouse liver microsomes; format: in vitro ADME; details: 10 μM, 37° C.
Protocol: as §3, §1, §2

[5] = In vivo pharmacokinetics in mice, peroral, bioanalysis method 2 (2-PMPA release); details: for stability of carboxylic esters in vivo: mouse
Protocol: Blood was obtained via cardiac puncture and tissue dissected at 0 min, 15 min, 30 min, 1 h, 2 h, and 4 h post dose (n=3 per time point). Single time point studies were conducted at 30 min (N=3) following dosing. Plasma was harvested from blood by centrifugation. Mean concentration-time data was used for pharmacokinetic (PK) analysis. Non-compartmental-analysis module in WinNonlin® (version 5.3) was used to assess pharmacokinetic parameters. Peak plasma concentrations (Cmax) and time to Cmax (Tmax) were the observed values. Area under the curve (AUC) was calculated by log-linear (p.o.) trapezoidal rule to the end of sample collection (AUClast) and extrapolated to infinity (AUC0-∞) by dividing the last quantifiable concentration by the terminal disposition rate constant (ke). […] The tissues were stored in −20° C. for 1 h and then homogenized. The calibration curve for the tissues was developed using naïve mouse brains from untreated animals as a matrix. For sciatic nerve, the nerves were weighed and homogenized in 50 μL methanol and the calibration curve was developed using naïve sciatic nerves from untreated animals as a matrix. The samples were vortexed and centrifuged. […] Supernatant was dried under a gentle stream of nitrogen at 45° C. and the residue reconstituted with 75 μL of acetonitrile and vortexed. 25 μL of derivatizing agent N-tert-Butyldimethysilyl-N-methyltrifluoro-acetamide (MTBSTFA) was added to microcentrifuge tubes, vortexed, and heated at ˜60 OC for 40 min. At the end of 40 min, the derivatized samples ˜75 μL were transferred to a 250 μL polypropylene vials and were analyzed via LC/MS/MS. Chromatographic analysis was performed using an Accela™ ultra high-performance system consisting of an analytical pump, and an autosampler coupled with TSQ Vantage mass spectrometer (Thermo Fisher Scientific Inc., Waltham Mass.). […] The total run time for each analyte was 5.0 min. Chromatographic analysis will be performed on Accela UPLC.

[6] = Metabolic stability in human plasma; format: in vitro ADME; details: 10 μM, 37° C.
Protocol: as §3, §1, §2

[7] = Metabolic stability in human liver microsomes; format: in vitro ADME; details: 10 μM, 37° C.
Protocol: as §3, §1, §2

[8] = Metabolic stability in mouse plasma; format: in vitro ADME; details: 10 μM, 37° C.
Protocol: as §3, §1, §2

[9] = Metabolic stability in mouse liver S9; format: in vitro ADME; details: Mouse S9, 10 μM, 37° C.

SMILES: CC(C)(C)C(=O)OCOC(=O)C(CCC(=O)O)CP(=O)(OCOC(=O)C(C)(C)C)OCOC(=O)C(C)(C)C (stereo not drawn) [Compound 23]
- permeability in vivo [1]: highest permeability
- chemical stability [2]: sufficient chemical stability
- in vitro metabolic stability [3]: instability in plasma and liver subcellular fractions

SMILES: CC(C)OC(=O)OC(C)OC(=O)C(CCC(=O)O)CP(=O)(OC(C)OC(=O)OC(C)C)OC(C)OC(=O)OC(C)C (stereo not drawn) [Compound 24]
- Percentage remaining ([4]; 0 min): 100%
- Percentage remaining ([4]; 30 min): 1%
- Percentage remaining ([4]; 60 min): 0%
- oral bioavailability ([5]; rodents and dogs): excellent oral bioavailability
- chemical stability [2]: sufficient chemical stability
- Percentage remaining ([6]; 0 min): 100%
- Percentage remaining ([6]; 30 min): 106%
- Percentage remaining ([6]; 60 min): 75%
- Percentage remaining ([7]; 0 min): 100%
- Percentage remaining ([7]; 30 min): 27%
- Percentage remaining ([7]; 60 min): 8%
- in vitro metabolic stability [3]: instability in plasma and liver subcellular fractions
- Percentage remaining ([8]; 0 min): 100%
- Percentage remaining ([8]; 30 min): 0%
- Percentage remaining ([8]; 60 min): 0%

SMILES: COC(=O)C(CCC(=O)O)CP(=O)(OCOC(=O)OC(C)C)OCOC(=O)OC(C)C (stereo not drawn) [Compound 7, 4-((Bis{[(isopropoxycarbonyl)oxy]methoxy}phosphoryl)methyl)-5-methoxy-5-oxopentanoic acid]
- permeability in vivo [1]: good compound penetrability; also recorded: good permeability
- chemical stability [2]: stable to chemical hydrolysis
- in vitro metabolic stability [3]: unstable in mouse plasma and mouse liver microsomes

SMILES: CCCOC(=O)CCC(CP(=O)(O)O)C(=O)OCCC (stereo not drawn) [Compound 3, [5-Oxo-5-propoxy-2-(propoxycarbonyl)pentyl]phosphonic acid]
- permeability in vivo [1]: then the propyl ester
- stability of carboxylic esters in vivo [5]: too stable in vivo
- in vitro metabolic stability [3]: too stable

SMILES: COC(=O)CCC(CP(=O)(O)O)C(=O)OC (stereo not drawn) [Compound 1, [5-(Methyloxy)-2-(methoxycarbonyl)-5-oxopentyl]phosphonic acid]
- Percentage remaining ([4]; 0 min): 100%
- Percentage remaining ([4]; 30 min): 102%
- Percentage remaining ([4]; 60 min): 103%
- stability of carboxylic esters in vivo [5]: too stable in vivo
- Percentage remaining ([2]; 0 min): 100%
- Percentage remaining ([2]; 30 min): 92%
- Percentage remaining ([2]; 60 min): 94%
- Percentage remaining ([6]; 0 min): 100%
- Percentage remaining ([6]; 30 min): 100%
- Percentage remaining ([6]; 60 min): 86%
- Percentage remaining ([7]; 0 min): 100%
- Percentage remaining ([7]; 30 min): 90%
- Percentage remaining ([7]; 60 min): 96%
- in vitro metabolic stability [3]: too stable; also recorded: stable in plasma
- in vitro metabolic stability ([3]; listed as JHU 2106): too stable
- Percentage remaining ([9]; 0 min): 100%
- Percentage remaining ([9]; 30 min): 101%
- Percentage remaining ([9]; 60 min): 86%
- Percentage remaining ([8]; 0 min): 100%
- Percentage remaining ([8]; 30 min): 102%
- Percentage remaining ([8]; 60 min): 101%

SMILES: CCOC(=O)CCC(CP(=O)(OCOC(=O)C(C)(C)C)OCOC(=O)C(C)(C)C)C(=O)OCC (stereo not drawn) [Compound 18, Diethyl 2-({bis[(pivaloyloxy)methoxy]phosphoryl}methyl)pentanedioate]
- Percentage remaining ([4]; 0 min): 100%
- Percentage remaining ([4]; 30 min): 2%
- Percentage remaining ([4]; 60 min): 0%
- Percentage remaining ([6]; 0 min): 100%
- Percentage remaining ([6]; 30 min): 50%
- Percentage remaining ([6]; 60 min): 18%
- Percentage remaining ([7]; 0 min): 100%
- Percentage remaining ([7]; 30 min): 1%
- Percentage remaining ([7]; 60 min): 0%
- in vitro metabolic stability [3]: too stable
- Percentage remaining ([9]; 0 min): 100%
- Percentage remaining ([9]; 30 min): 1%
- Percentage remaining ([9]; 60 min): 0%
- Percentage remaining ([8]; 0 min): 0%
- Percentage remaining ([8]; 30 min): 0%
- Percentage remaining ([8]; 60 min): 0%

SMILES: COC(=O)CCC(CP(=O)(OCOC(=O)OC(C)C)OCOC(=O)OC(C)C)C(=O)OC (stereo not drawn) [Compound 6, Dimethyl 2-((bis{[(isopropoxycarbonyl)oxy]methoxy}phosphoryl)methyl)-pentanedioate]
- Percentage remaining ([4]; 0 min): 100%
- Percentage remaining ([4]; 30 min): 2%
- Percentage remaining ([4]; 60 min): 0.1%
- permeability in vivo [1]: good compound penetrability; also recorded: good permeability
- permeability in vivo ([1]; listed as JHU 2110): most permeable
- Percentage remaining ([2]; 0 min): 100%
- Percentage remaining ([2]; 30 min): 101%
- Percentage remaining ([2]; 60 min): 93%
- chemical stability [2]: stable to chemical hydrolysis
- chemical stability ([2]; listed as JHU 2110): stable in HBSS buffer
- in vitro metabolic stability [3]: unstable in mouse plasma and mouse liver microsomes
- Percentage remaining ([9]; 0 min): 100%
- Percentage remaining ([9]; 30 min): 1%
- Percentage remaining ([9]; 60 min): 0.1%
- Percentage remaining ([8]; 0 min): 100%
- Percentage remaining ([8]; 30 min): 2%
- Percentage remaining ([8]; 60 min): 0.4%
